# According to patent US5420131A, “Cyanomethylpyridine derivatives” (J. Uriach & Cia, S.A., priority 1993, dated 1995):
# Legend:
# [1] = tested on: platelet aggregation induced by PAF; test: Inhibition of platelet aggregation induced by PAF (rabbit platelet rich plasma, Born nephelometric technique); format: cell-based, male New Zealand albino rabbits; settings: Oryctolagus cuniculus, rabbit PRP, 3×10^5 platelets/mm^3, PAF (C18) 15 nM
# Description: Inhibition of platelet aggregation induced by PAF.
# Blood is obtained by cardiac puncture of male New Zealand albino rabbits (b.w. 2-2.5 Kg) and coagulation is prevented by adding 1 part of 3.16% sodium citrate dihydrate in 9 parts of blood. Platelet rich plasma (PRP) is prepared by centrifuging the blood at 250×g for 10 min. at 4° C. and then it is diluted with platelet poor plasma (PPP) obtained by further centrifuging at 3000×g for 10 min. The platelet count is adjusted to 3×10^5 /mm^3. Platelet aggregation induced by PAF (C18, prepared in our laboratory) (15 nM) is determined by the Born nephelometric technique (J. Physiol., 1962, 162, 67) using an aggregometer Chrono-log 500. The activities of the inhibitors are expressed as the IC50 value, that is to say the concentration of the drug needed to inhibit platelet aggregation by 50%.
# [2] = tested on: hypotensive effect induced by PAF in normotense rats; test: Inhibition of the hypotensive effect induced by PAF in normotense rats; format: in vivo, male Sprage Dawley rats; settings: Rattus norvegicus, iv, 0.05 h; i.v., test compound via femoral vein 3 min. before PAF 0.5 mcg/Kg i.v.; anaesthetized rats; read-out: ID50 (inhibition of PAF-induced hypotension)
# Description: Inhibition of the hypotensive effect induced by PAF in normotense rats.
# Male Sprage Dawley rats (b.w. 180-220 g) anaesthetized with sodium pentobarbital (50 mg/Kg, i.p. 1 mL/100 g) are used. In order to measure the arterial pressure, a polyethylene catheter is introduced into the carotid artery. The arterial pressure is recorded with the help of a transducer coupled to a R611 Beckman polygraph. The test compounds are administered through the femoral vein 3 min. before PAF injection (0.5 mcg/Kg, i.v.). Control animals receive only the vehicle.
Compound,IC50 [1],ED50 [2]
"Cc1ncccc1C(C#N)N1CCN(C(=O)CC(NC(=O)c2cccc(OCc3ccc4ccccc4n3)c2)c2ccccc2)CC1 (stereo not drawn) [Compound 6, 1-[3-[N-[3-(2-quinolylmethoxy)benzoyl]]amino-3-phenylpropionyl]-4-[(2-methyl-3-pyridyl)cyanomethyl]piperazine]",740 nM,0.16 mg/kg
"N#CC(c1cccnc1)C1CCN(C(=O)[C@H](NC(=O)c2cccc(OCc3ccc4ccccc4n3)c2)c2ccccc2)CC1 (stereo partly drawn) [Compound 13, 1-[N-[3-(2-quinolylmethoxy)benzoyl]-D-2-phenylglycinyl]-4-(3-pyridylcyanomethyl)piperidine]",660 nM,0.21 mg/kg
Cc1ncccc1C(C#N)N1CCN(C(=O)CNC(c2ccccc2)c2ccc(OCc3ccc4ccccc4n3)cc2)CC1 (stereo not drawn) [Compound 2],1800 nM,0.057 mg/kg
"N#CC(c1cccnc1)C1CCN(C(=O)[C@H](NC(=O)Cc2ccc(OCc3ccc4ccccc4n3)cc2)c2ccccc2)CC1 (stereo partly drawn) [Compound 10, 1-[N-[p-(2-quinolylmethoxy)phenylacetyl]-D-2-phenylglycinyl]-4-(3-pyridylcyanomethyl)piperidine]",550 nM,0.12 mg/kg
"Cc1ncccc1C(C#N)N1CCN(C(=O)CC(NC(=O)c2ccc(OCc3ccc4ccccc4n3)cc2)c2ccccc2)CC1 (stereo not drawn) [Compound 5, 1-[3-[N-[p-(2-quinolylmethoxy)benzoyl]]amino-3-phenylpropionyl]-4-[(2-methyl-3-pyridyl)cyanomethyl]piperazine]",680 nM,0.21 mg/kg
"Cc1ncccc1C(C#N)N1CCN(C(=O)Cc2ccc(OCc3ccc4ccccc4n3)cc2)CC1 (stereo not drawn) [Compound 1, 1-[p-(2-Quinolylmethoxy)phenylacetyl]-4-[(2-methyl-3-pyridyl)cyanomethyl]piperazine]",6700 nM,0.69 mg/kg

# These reach a lower IC50 [1]. Values come first.
IC50 [1],Compound,ED50 [2]
80 nM,"Cc1ncccc1C(C#N)N1CCN(C(=O)CC(NC(=O)Cc2ccc(OCc3ccc4ccccc4n3)cc2)c2ccccc2)CC1 (stereo not drawn) [Compound 3, 1-[3-[N-[p-(2-quinolylmethoxy)phenylacetyl]]amino-3-phenylpropionyl]-4-[(2-methyl-3-pyridiyl)cyanomethyl]piperazine]",0.036 mg/kg
55 nM,"N#CC(c1cccnc1)C1CCN(C(=O)CC(NC(=O)c2ccc(OCc3ccc4ccccc4n3)cc2)c2ccccc2)CC1 (stereo not drawn) [Compound 7, 1-[3-[N-[p-(2-quinolylmethoxy)benzoyl]]amino-3-phenylpropionyl]-4-(3-pyridylcyanomethyl)piperidine]",0.25 mg/kg
12 nM,"Cc1ncccc1C(C#N)N1CCN(C(=O)CC(NC(=O)Cc2cccc(OCc3ccc4ccccc4n3)c2)c2ccccc2)CC1 (stereo not drawn) [Compound 4, 1-[3-[N-[3-(2-quinolylmethoxy)phenylacetyl]]amino-3-phenylpropionyl]-4-[(2-methyl-3-pyridyl)cyanomethyl]piperazine]",0.041 mg/kg
